According to US9499495B2, “Quinazolines and azaquinazolines as dual inhibitors of RAS/RAF/MEK/ERK and PI3K/AKT/PTEN/mTOR pathways” (Asana Biosciences, LLC, priority 2013, dated 2016):

Experiments:
A375 cells = test: XTT assay for cell viability, A375 cells; assay type: cell-based; conditions: Homo sapiens, A-375, 72 h
Experimental: Cell lines (A375 ATCC No. CRL-1619, A2058 ATCC No. CRL-11147 and RKO ATCC No. CRL-2577, American Type Culture Collection (ATCC), Manassas Va.) once attaining ˜80% confluency were trypsinized, centrifuged and resuspended in fresh media. Cells (1000-2000/per well) were seeded in 96-well plate and incubated over-night at 37° C. in a 5% CO2 incubator. Compound dilutions were prepared in 100% DMSO followed by dilutions in the respective media. The cells were treated with NCEs for 72 h at 37° C. in 5% CO2 incubator. After 72 h, freshly prepared XTT (1 mg/ml)/PMS (25 μM) solution was added, incubated for 2 to 3 h at 37° C. and the absorbance was measured at 450 nm using an ELISA plate reader. Keeping DMSO control as 100%, the effect of the compound to inhibit the cell proliferation was calculated and the GI50 values were determined using sigmoidal dose response curve fit in GraphPad Prism® v5 software.

B-RAFV600E = molecular target: T1, B-RAFV600E (Homo sapiens, UniProt P15056, V600E); test: B-RAFV600E radiometric assay; assay type: biochemical; conditions: read-out: Kinase assay B-Raf
T1 construct: purchased Millipore, USA 14-557
Experimental: Compound inhibition for B-RAFV600E was determined through radiometric assay using a BRAF enzyme (Catalog No. 14-557, Millipore, USA) and MEK-K97M protein as a substrate (Catalog No. 0785-0000-1, ProqQinase GmbH, Germany). The B-RAF kinase catalyzes the phosphorylation of MEK protein in the presence of gamma ATP (PLC-101, Jonaki, CCMB, Hyderabad), cold ATP and Mg^2+.
The phosphorylated protein product is detected by the scintillation counter Topcount® machine (Perkin Elmer). This assay has been adapted from the method previously reported by Yeh et al. (2007, Clinical Cancer Research; 13, 1576-1583). The assay measures the B-RAF mediated transfer of 32P from the gamma position of radiolabeled ATP onto MEK1-KD. The labeled phosphorylated protein was measured in MicroBeta® Trilux Counter (Perkin Elmer). The assay was validated with reference compounds RAF1 Kinase Inhibitor I and ZM 336372 inhibitor which are reported to be inhibitors of B-RAF enzyme (Lackey, 2000, Medicinal Chemistry Letters; 10(3):223-226; Kupcho, “Fluorescent High throughput kinase cascade assays for inhibitor characterization, RAF-MEK-ERK pathway, www.invitrogen.com, and Hall-Jackson, 1999, Chemical Biology; 6(8):559-568). B-RAF enzyme mixture (13 μL) was added to compound wells containing 2 μL of the NCE in 1% DMSO and incubated for 45 min at rt on a shaking incubator at 300 rpm. MEK-K97M (0.5 μg) and cold ATP to a final concentration of 5 μM, and hot ATP 0.1 μCi in a volume of 10 μL was added to each well and incubated for 2 h at rt on a shaking incubator at 300 rpm. The reaction was stopped by addition of […] (13 μL) containing ATP (1 mM: 495 μL 1N HCl and 5 μL 100 mM ATP). Aliquot (30 μL) was then transferred to the center of a 2 cm×2 cm P81 paper. P81 paper was washed 8×5 min each with ortho-phosphoric acid (0.5%). P81 papers are washed twice with acetone for […] Assay squares were allowed to dry for […] at 37° C. P81 paper are transferred to Optiplate™ (Perkin Elmer) and counted in a Topcount® counter (Perkin Elmer). Data was plotted against the compound concentration to generate dose-response curves and IC50 values were determined using a sigmoidal dose response curve fit GraphPad Prism® v5 software.

pERK in A375 cells = test: In Cell Western (ICW) assay, pERK in A375 cells; assay type: cell-based; conditions: Homo sapiens, A-375, 3 h treatment
Experimental: Cell lines A375, A2058 and RKO obtained from the ATCC as provided above, were grown, and after attaining ˜80% confluency were trypsinized, centrifuged and resuspended in fresh media. The cells were seeded at the specified density (20,000 to 50,000) in a 96-well format black-well clear bottom plate (Corning) and incubated overnight at 37° C. in a 5% CO2 incubator. The next day, compound dilutions of test compounds were prepared in 100% DMSO followed by dilutions in respective media. Treatment of test compounds was performed for 3 h at 37° C. in 5% CO2 incubator. Following 3 h drug treatment, the conditional media was discarded and the cells were washed once with cPBS (PBS containing 0.1% magnesium chloride hexahydrate and 0.1% anhydrous calcium chloride) and fixed with 4% paraformaldehyde in cPBS for 1 h at rt. After fixing, the cells were given three washes using cPBST (cPBS containing 0.1% Triton™ X-100 reagent) and then blocked using blocking solution (5% skimmed milk powder or 5% BSA prepared in cPBST) for 2 h at rt with shaking at 300 rpm. The cells were again washed thrice with cPBST and incubated with primary antibody phospho-p44/42 MAPK(Erk1/2)(Thr202/204) antibody (Cell Signaling, Catalog # 9101L), phospho S6 ribosomal protein (Cell Signaling, Catalog #4858L), phospho AKT (Thr 308) (Cell Signaling, Catalog #9275) or phospho AKT (Ser 473) (Cell Signaling, Catalog #4060L) in specified dilutions (1:500-1:2500), prepared in respective blocking solutions, in a racker overnight at 4° C. The next day, the cells were washed with 1× Delfia® wash buffer (4×1 wash) and incubated with secondary antibody (Delfia®-Eu-N1 labeled anti-rabbit antibody; PerkinElmer, Catalog #AD0105; dilutions: 1:2000 to 1:6000 in Delfia® assay buffer (PerkinElmer, Catalog #1244-111)) for 2 h at rt in the dark at 300 rpm. The cells were then given four washes with 1× Delfia® wash buffer and incubated with Wallac Delfia® Enhancement solution (100 μL; PerkinElmer, Catalog #1244-105) for 20 min at rt in the dark at 300 rpm. The fluorescence emission was then read at 615 nm with an excitation wavelength of 340 nm using a Victor V5 Fluorometer (Perkin Elmer, US). The cells were then washed once with 1×cPBS and incubated with 100 μL of 0.5 mg/mL of Hoechst 33258 dye prepared in cPBS and read at 460 nm with 355 nm excitation, thereby evaluating the correction factor.
The % inhibition for the test compounds of formula (I) (new chemical entities (NCEs)) was calculated keeping DMSO control as 0% and the IC50 values were determined using sigmoidal dose response curve fit in GraphPad Prism® v5 software.

mTOR kinase = molecular target: T2, mTOR kinase (Homo sapiens, UniProt P42345); test: mTOR kinase TR-FRET assay; assay type: biochemical
T2 construct: purchased Millipore, US
Experimental: Compound inhibition for mTOR kinase was determined by homogeneous TR-FRET assay using ULight-p70 S6K (Thr 389) peptide as substrate. mTOR enzyme (Millipore, US; […]) was used in the assay. The reaction buffer was HEPES (50 mM, pH 7.5), EGTA (1 mM), and MnCl2 (3 mM). Test compound was pre-incubated with mTOR for 30 min followed by 50 nM ULight-p70 S6K (Thr 389) peptide along with ATP (20 μM).
After incubating the reaction mixture for 30 min, Eu-labeled anti-phospho-substrate antibody (1 nM, Perkin Elmer, USA) was added. Fluorescence emission at […] was measured upon excitation at 340 nm. The compound dilution was carried out in 100% DMSO followed by a buffer dilution. The kinase reaction was incubated for 1 h at rt followed by the addition of substrate-ATP mix and incubated at rt for 1 h. The reaction was terminated by the addition of EDTA followed by the addition of detection mix. IC50 values were determined using a sigmoidal dose response curve fit, GraphPad Prism® v5 software.

T1 sequence (P15056 416-766 V600E limits assumed): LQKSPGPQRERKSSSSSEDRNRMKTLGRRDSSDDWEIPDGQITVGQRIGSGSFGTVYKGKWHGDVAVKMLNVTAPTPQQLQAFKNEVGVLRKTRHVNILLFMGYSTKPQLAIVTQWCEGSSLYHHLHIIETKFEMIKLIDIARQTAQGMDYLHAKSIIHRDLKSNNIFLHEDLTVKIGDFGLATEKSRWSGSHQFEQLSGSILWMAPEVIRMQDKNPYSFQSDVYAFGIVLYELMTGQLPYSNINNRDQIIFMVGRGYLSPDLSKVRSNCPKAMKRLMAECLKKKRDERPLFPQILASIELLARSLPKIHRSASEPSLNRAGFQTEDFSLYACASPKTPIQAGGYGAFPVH
T2 sequence (P42345 1362-2549 limits assumed): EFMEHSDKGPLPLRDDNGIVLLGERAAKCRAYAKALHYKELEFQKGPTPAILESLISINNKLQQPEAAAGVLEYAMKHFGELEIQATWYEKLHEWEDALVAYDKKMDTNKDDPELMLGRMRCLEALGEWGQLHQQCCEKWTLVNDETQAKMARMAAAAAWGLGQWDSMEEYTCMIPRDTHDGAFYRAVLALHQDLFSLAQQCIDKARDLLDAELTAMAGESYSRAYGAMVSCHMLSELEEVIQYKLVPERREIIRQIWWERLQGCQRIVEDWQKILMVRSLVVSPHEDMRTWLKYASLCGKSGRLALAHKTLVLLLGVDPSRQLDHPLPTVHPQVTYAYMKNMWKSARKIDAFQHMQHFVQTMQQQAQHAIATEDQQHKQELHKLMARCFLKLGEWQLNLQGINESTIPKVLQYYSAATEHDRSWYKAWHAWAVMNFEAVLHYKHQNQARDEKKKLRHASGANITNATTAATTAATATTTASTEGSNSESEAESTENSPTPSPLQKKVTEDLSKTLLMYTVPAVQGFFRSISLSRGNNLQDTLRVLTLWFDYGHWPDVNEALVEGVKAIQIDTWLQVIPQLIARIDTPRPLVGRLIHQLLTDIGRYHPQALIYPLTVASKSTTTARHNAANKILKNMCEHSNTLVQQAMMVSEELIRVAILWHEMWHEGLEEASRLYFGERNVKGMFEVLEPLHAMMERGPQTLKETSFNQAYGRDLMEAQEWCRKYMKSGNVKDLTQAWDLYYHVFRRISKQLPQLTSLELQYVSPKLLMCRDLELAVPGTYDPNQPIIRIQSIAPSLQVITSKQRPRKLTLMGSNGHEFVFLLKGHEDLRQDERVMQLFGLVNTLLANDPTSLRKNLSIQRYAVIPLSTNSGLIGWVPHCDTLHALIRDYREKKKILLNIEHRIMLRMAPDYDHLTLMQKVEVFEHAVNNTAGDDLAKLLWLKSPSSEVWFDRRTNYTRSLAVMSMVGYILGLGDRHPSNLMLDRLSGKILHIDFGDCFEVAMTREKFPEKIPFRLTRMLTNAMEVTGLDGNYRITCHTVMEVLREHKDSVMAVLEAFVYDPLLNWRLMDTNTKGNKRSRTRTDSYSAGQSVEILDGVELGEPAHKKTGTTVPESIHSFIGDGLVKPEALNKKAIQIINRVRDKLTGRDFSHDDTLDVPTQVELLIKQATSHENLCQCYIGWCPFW

Compound: CCCS(=O)(=O)Nc1ccc(F)c(-c2cc(OC)c3nc(-c4cnc(N)nc4)nc(N4CCOCC4)c3c2)c1F [Example 6, N-(3-(2-(2-aminopyrimidin-5-yl)-8-methoxy-4-morpholinoquinazolin-6-yl)-2,4-difluorophenyl)propane-1-sulfonamide]
- IC50 (A375 cells): 0.1 to 1 µM
- IC50 (B-RAFV600E): 0.001 to 0.1 µM
- IC50 (pERK in A375 cells): 0.1 to 1 µM
- IC50 (mTOR kinase): 0.001 to 0.1 µM

Compound: CCCS(=O)(=O)Nc1cccc(-c2cc(OC)c3nc(-n4c(C(F)F)nc5ccccc54)nc(N4CCOCC4)c3c2)c1F [Example 9, N-(3-(2-(2-(difluoromethyl)-1H-benzo[d]imidazol-1-yl)-8-methoxy-4-morpholinoquinazolin-6-yl)-2-fluorophenyl)propane-1-sulfonamide]
- IC50 (A375 cells): 0.1 to 1 µM
- IC50 (B-RAFV600E): 0.001 to 0.1 µM
- IC50 (pERK in A375 cells): 0.1 to 1 µM
- IC50 (mTOR kinase): 0.1 to 1 µM

Compound: COc1cc(-c2cccc(NS(=O)(=O)c3c(F)cccc3F)c2F)cc2c(N3CCOCC3)nc(-c3cnc(N)nc3)nc12 [Example 13, N-(3-(2-(2-aminopyrimidin-5-yl)-8-methoxy-4-morpholinoquinazolin-6-yl)-2-fluorophenyl)-2,6-difluorobenzenesulfonamide]
- IC50 (A375 cells): 0.1 to 1 µM
- IC50 (B-RAFV600E): 0.001 to 0.1 µM
- IC50 (pERK in A375 cells): 0.1 to 1 µM
- IC50 (mTOR kinase): 0.1 to 1 µM

Compound: CCCS(=O)(=O)Nc1cccc(-c2cc(OC)c3nc(-c4ccc(NC(=O)NC)cc4)nc(N4CCOCC4)c3c2)c1F [Example 14, N-(2-fluoro-3-(8-methoxy-2-(4-(3-methylureido)phenyl)-4-morpholinoquinazolin-6-yl)phenyl)propane-1-sulfonamide]
- IC50 (A375 cells): 0.1 to 1 µM
- IC50 (B-RAFV600E): 0.1 to 1 µM
- IC50 (pERK in A375 cells): 0.1 to 1 µM
- IC50 (mTOR kinase): 0.001 to 0.1 µM

Compound: CCCS(=O)(=O)Nc1cccc(-c2cc(OC)c3nc(-c4cnc(N)nc4)nc(N4CCOCC4)c3c2)c1F [Example 15, N-(3-(2-(2-aminopyrimidin-5-yl)-8-methoxy-4-morpholinoquinazolin-6-yl)-2-fluorophenyl)propane-1-sulfonamide]
- IC50 (A375 cells): 0.1 to 1 µM
- IC50 (B-RAFV600E): 0.1 to 1 µM
- IC50 (pERK in A375 cells): 0.1 to 1 µM
- IC50 (mTOR kinase): 0.1 to 1 µM

Compound: CCCS(=O)(=O)Nc1cccc(-c2cc(OC)c3nc(-c4ccc(N)nc4)nc(N4CCOCC4)c3c2)c1F [Example 17, N-(3-(2-(6-aminopyridin-3-yl)-8-methoxy-4-morpholinoquinazolin-6-yl)-2-fluorophenyl)propane-1-sulfonamide]
- IC50 (A375 cells): 0.1 to 1 µM
- IC50 (B-RAFV600E): 0.001 to 0.1 µM
- IC50 (pERK in A375 cells): 0.1 to 1 µM
- IC50 (mTOR kinase): 0.001 to 0.1 µM

Compound: CCCS(=O)(=O)Nc1cccc(-c2cc(OC)c3nc(-c4ccc(N)nc4F)nc(N4CCOCC4)c3c2)c1F [Example 18, N-(3-(2-(6-amino-2-fluoropyridin-3-yl)-8-methoxy-4-morpholinoquinazolin-6-yl)-2-fluorophenyl)propane-1-sulfonamide]
- IC50 (A375 cells): 0.1 to 1 µM
- IC50 (B-RAFV600E): 0.1 to 1 µM
- IC50 (pERK in A375 cells): 0.1 to 1 µM
- IC50 (mTOR kinase): 0.1 to 1 µM

Compound: COc1cc(-c2cccc(NS(=O)(=O)c3c(F)cccc3F)c2F)cc2c(N3CCOCC3)nc(-c3ccc(N)nc3)nc12 [Example 19, N-(3-(2-(6-aminopyridin-3-yl)-8-methoxy-4-morpholinoquinazoIin-6-yl)-2-fluorophenyl)-2,6-difluorobenzenesulfonamide]
- IC50 (A375 cells): 0.1 to 1 µM
- IC50 (B-RAFV600E): 0.001 to 0.1 µM
- IC50 (pERK in A375 cells): 0.1 to 1 µM
- IC50 (mTOR kinase): 0.1 to 1 µM

Compound: COc1cc(-c2cccc(NS(=O)(=O)CC(C)C)c2F)cc2c(N3CCOCC3)nc(-c3cnc(N)nc3)nc12 [Example 20, N-(3-(2-(2-aminopyrimidin-5-yl)-8-methoxy-4-morpholinoquinazolin-6-yl)-2-fluorophenyl)-2-methylpropane-1-sulfonamide]
- IC50 (A375 cells): 0.1 to 1 µM
- IC50 (B-RAFV600E): 0.001 to 0.1 µM
- IC50 (pERK in A375 cells): 0.1 to 1 µM
- IC50 (mTOR kinase): 0.1 to 1 µM

Compound: CCS(=O)(=O)Nc1cccc(-c2cc(OC)c3nc(-c4cnc(N)nc4)nc(N4CCOCC4)c3c2)c1F [Example 21, N-(3-(2-(2-aminopyrimidin-5-yl)-8-methoxy-4-morpholinoquinazolin-6-yl)-2-fluorophenyl) \ethanesulfonamide]
- IC50 (A375 cells): 1 to 10 µM
- IC50 (B-RAFV600E): 0.1 to 1 µM
- IC50 (pERK in A375 cells): 0.1 to 1 µM
- IC50 (mTOR kinase): 0.1 to 1 µM

Compound: COc1cc(-c2cccc(NS(=O)(=O)c3cc(F)ccc3F)c2F)cc2c(N3CCOCC3)nc(-c3cnc(N)nc3)nc12 [Example 22, N-(3-(2-(2-aminopyrimidin-5-yl)-8-methoxy-4-morpholinoquinazolin-6-yl)-2-fluorophenyl)-2,5-difluorobenzenesulfonamide]
- IC50 (A375 cells): 0.1 to 1 µM
- IC50 (B-RAFV600E): 0.001 to 0.1 µM
- IC50 (pERK in A375 cells): 0.001 to 0.1 µM
- IC50 (mTOR kinase): 0.1 to 1 µM

Compound: COc1cc(-c2cccc(NS(=O)(=O)CCCF)c2F)cc2c(N3CCOCC3)nc(-c3cnc(N)nc3)nc12 [Example 27, N-(3-(2-(2-aminopyrimidin-5-yl)-8-methoxy-4-morpholinoquinazolin-6-yl)-2-fluorophenyl)-3-fluoropropane-1-sulfonamide]
- IC50 (A375 cells): 0.1 to 1 µM
- IC50 (B-RAFV600E): 0.001 to 0.1 µM
- IC50 (pERK in A375 cells): 0.001 to 0.1 µM
- IC50 (mTOR kinase): 0.1 to 1 µM
